Source: US20050244502A1, “Composition for enhancing absorption of a drug and method” (priority 2004, published 2005)

Key:
in vivo = conditions: rat, 1 mg/kg
Source text: A dosing solution of DDAVP in water, C971P, LPC or C971P/LPC was directly injected into a 10-cm segment of rat colon. Blood was collected over a 2 hr period to assess the extent of systemic absorption from the various formulations.

in vitro = conditions: human
Calu-3 cells [1] = experiment: Acute cytotoxicity assay (Alamar Blue) in Calu-3 cells; format: cell-based, human
Source text: FIG. 2 depicts an Alamar Blue Assay—Black bar indicates the % of the cell survival after 2 hrs treatment of LPC at 0-0.25%; gray bar indicates the combination of LPC with 0.5% of C971P.
This assay is based on the ability of live cells to enzymatically reduce Alamar blue dye which indicates the relative percentage of cells that survive the exposure to the various treatments. Calu-3 cells exposed to buffer for 2 hr were used as the positive control with 100% cell survival.

Calu-3 cells [2] = experiment: Permeability (Papp) of DDAVP across Calu-3 cell monolayers on Transwell filters; conditions: for additive permeability enhancement or change in epithelial resistance in the presence of Carbopol polymers (in words): enhancer with Carbopol polymers (Example 11)
[3] = Intra-nasal DADLE absorption in rabbits; format: in vivo; conditions: DADLE 1 mg/kg via syringe microsprayer in rabbit nostril
Source text: Intra-nasal delivery of the model pentapepdide DADLE in water, C971P, LPC or C971P/LPC formulation was studied in rabbits. […] The C971P/LPC formulation enhanced DADLE absorption by >50% compared to LPC alone.

Calu-3 cells [4] = experiment: TEER measurement (cell integrity and reversibility) in Calu-3 cells; format: cell-based, human
Source text: The asterisk (delete scatters with) (*) represent (delete marker present) those samples where TEER recovered to the original level within 12 hrs after washout of the treatment.
Transepithelial electrical resistance (TEER) measures the integrity of the epithelial barrier. […] Return of the TEER values to initial levels indicates recovery to baseline barrier properties. TEER measurements were done in confluent highly resistant Calu-3 cells cultured in Transwell filters with handheld STX-2 electrodes connected to EVOM Voltohmmeter. […] After the removal of apical treatment, TEER recovered to the original values.

NC(=O)CC[C@@H]1NC(=O)[C@H](Cc2ccccc2)NC(=O)[C@H](Cc2ccc(O)cc2)NC(=O)CCSSC[C@@H](C(=O)N2CCC[C@H]2C(=O)N[C@H](CCCN=C(N)N)C(=O)NCC(N)=O)NC(=O)[C@H](CC(N)=O)NC1=O [DDAVP, 1 deamino-8-D-arginin-vasopressin]
bioavailability (in vivo): 0.1 ± 0.1%
Papp (in vitro): 0.04 ± 0.003 ×10⁻⁶ cm/s

CCCCCCCCCC(=O)[O-].[Na+] [sodium caprate]
effect of Carbopol 971P on acute cytotoxicity of the enhancer (in words) (Calu-3 cells [1]; enhancer combined with Carbopol 971P, Alamar Blue, Calu-3 cells): failed to reduce the acute cytotoxicity
additive permeability enhancement or change in epithelial resistance in the presence of Carbopol polymers (in words) (Calu-3 cells [2]): do not show additive permeability enhancement advantage or change in epithelial resistance

L-α-lysophosphatidylcholine [LPC]
DADLE exposure, times higher than water control [3]: 2.4 times
cell survival (Calu-3 cells [1]; 0.05% LPC alone, 2 hr, buffer control = 100%): About 82%
cell survival (Calu-3 cells [1]; 0.05% LPC with C971P (0.5%) in the formulation, 2 hr): 95%
cell survival (Calu-3 cells [1]; 0.1% LPC alone, 2 hr): 41%
cell survival (Calu-3 cells [1]; 0.1% LPC in the presence of C971P (0.5%), 2 hr): > 90%
cell survival (in words) (Calu-3 cells [1]; LPC alone 0-0.25%, 2 hr): dose-dependent reduction in survival
DDAVP Papp increase compared with 0.5% C971P alone (Calu-3 cells [2]; LPC 0.01-0.25% combined with 0.5% C971P, dose-dependent, Calu-3 cells): up to 32 fold
TEER recovery after removal of treatment (in words) (Calu-3 cells [4]; 0.05% LPC with C971P also present): recovered
TEER change (in words) (Calu-3 cells [4]; LPC alone, 2 hr treatment): dramatic drop in TEER
extent of TEER drop (in words) (Calu-3 cells [4]; LPC with C971P present in the formulation, 2 hr treatment): significantly reduced

Phosphatidylcholine [Lecithin]
DDAVP permeability enhancement or TEER drop (in words) (Calu-3 cells [2]; Carbopol added along with phosphatidylcholine): no significant enhancement in permeability or drop in TEER
DDAVP Permeability (Calu-3 cells [2]; Lecithin 1 mM): 0.045 ± 0.003 ×10⁻⁶ cm/s
DDAVP Permeability (Calu-3 cells [2]; Lecithin 2 mM): 0.044 ± 0.003 ×10⁻⁶ cm/s
DDAVP Permeability (Calu-3 cells [2]; Lecithin 5 mM): 0.044 ± 0.004 ×10⁻⁶ cm/s
additive permeability enhancement or change in epithelial resistance in the presence of Carbopol polymers (in words) (Calu-3 cells [2]): do not show additive permeability enhancement advantage or change in epithelial resistance
DDAVP permeability enhancement or TEER drop (in words) (Calu-3 cells [2]; phosphatidylcholine alone, Calu-3 cells): failed to show any measurable enhancement or TEER drop
TEER after 2 hr (% initial) (Calu-3 cells [4]; Lecithin 1 mM): No change
TEER after 2 hr (% initial) (Calu-3 cells [4]; Lecithin 2 mM): No change
TEER after 2 hr (% initial) (Calu-3 cells [4]; Lecithin 5 mM): No change
